{"source": "patent US6780414B2", "about": "(priority 1998, dated 2004)", "target": "T1, BFT (Bacteroides fragilis, UniProt P54355)", "T1 sequence (P54355 26-405)": "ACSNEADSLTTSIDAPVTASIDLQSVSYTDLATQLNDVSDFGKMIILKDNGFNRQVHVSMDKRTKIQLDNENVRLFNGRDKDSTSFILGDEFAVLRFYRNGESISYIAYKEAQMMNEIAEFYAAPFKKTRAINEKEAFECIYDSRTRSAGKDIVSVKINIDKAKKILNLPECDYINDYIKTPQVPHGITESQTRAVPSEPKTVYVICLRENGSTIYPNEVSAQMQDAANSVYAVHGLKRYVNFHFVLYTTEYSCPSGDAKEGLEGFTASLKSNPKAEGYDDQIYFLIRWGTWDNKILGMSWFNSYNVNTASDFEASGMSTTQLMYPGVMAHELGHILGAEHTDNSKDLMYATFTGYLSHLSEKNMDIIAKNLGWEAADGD", "type": "cell-based, Bacterioides fragilis"}
{"compound": "NCCCCCN", "note": "[cadaverine, 1,5-diaminopentane]", "values": [{"measurement": "Effect of Cadaverine, enterotoxicity in Ussing chambers", "result": "completely"}, {"measurement": "ΔIsc + cadaverine", "result": 21.5}]}
